Usually IC50 stands for the point on the concentration scale where inhibition reaches its midpoint. Low values mean greater potency in that assay, high ones weaker potency in that assay.

Assay type in all cases: biochemical
One assay deals with T1, CSN5 (Homo sapiens, UniProt Q92905).
T1 construct: made in house; host or cells: Sf21 insect cells, co-infection of separate baculoviruses
Kind of assay: CSN5 activity assay (CSN deneddylation, fluorescence polarization). The settings on record: JAMM domain protease; means±s.d. As to the method:
Unlike the majority of proteases, it is not active as an individual subunit or as an isolated catalytic domain. […] For the identification of CSN inhibitors, we therefore conducted a high-throughput screening campaign using a biochemical assay with recombinant CSN and a fluorescence-labelled and NEDD8-modified CRL substrate[30][40] (PT22-NEDD8-SCF^Skp2; Supplementary Table 1).
The potency of CSN5 inhibitors was determined in a CSN activity assay using changes in fluorescence polarization as the readout. Reactions were carried out at room temperature in 384-well plates. […] The effect of compound on enzymatic activity was determined from the linear part of the progression curves by an end-point measurement of the fluorescence polarization at 590 nm after excitation at 540 nm using a PHERAstar plate reader (BMG LABTECH GmbH). IC50 values were calculated from the plot of percentage of inhibition versus inhibitor concentration using the non-linear regression analysis software Origin 7.5SR6 (OriginLab Corp.).
(Fluorescence polarisation rises when a labelled molecule tumbles more slowly, as on binding a larger partner.)

The target in the next assay is T2, Human AMSHLP (Homo sapiens, UniProt Q96FJ0).
T2 construct: made in house; host or cells: E. coli
T2 sequence (Q96FJ0 1-436): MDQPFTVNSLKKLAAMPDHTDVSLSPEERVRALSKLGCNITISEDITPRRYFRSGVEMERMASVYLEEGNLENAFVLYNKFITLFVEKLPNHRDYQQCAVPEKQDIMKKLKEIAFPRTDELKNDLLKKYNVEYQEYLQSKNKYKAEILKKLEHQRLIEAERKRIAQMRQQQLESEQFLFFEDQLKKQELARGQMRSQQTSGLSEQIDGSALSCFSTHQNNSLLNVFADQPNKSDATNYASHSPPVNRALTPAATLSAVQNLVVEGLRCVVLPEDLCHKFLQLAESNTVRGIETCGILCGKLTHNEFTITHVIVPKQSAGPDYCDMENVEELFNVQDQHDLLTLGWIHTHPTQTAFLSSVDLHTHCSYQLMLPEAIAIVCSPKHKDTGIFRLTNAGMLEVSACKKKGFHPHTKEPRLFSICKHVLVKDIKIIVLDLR
Kind of assay: Selectivity assay AMSHLP (ubiquitin-rhodamine110-glycine substrate). The settings on record: JAMM domain protease. As to the method: (§1) All biochemical assays were performed at room temperature in 384-well plates in a total volume of 25.25 μl per well. Test compounds were dissolved in 90% (v/v) DMSO/water. For the assays, 250 nl of compound solution was added per well, followed by addition of 12.5 μl protease solution. After 70 min of pre-incubation at room temperature, the reactions were started by addition of 12.5 μl substrate solution and followed either by measuring fluorescence intensity (rhodamine 110-based substrates) or by fluorescence lifetime (PT14-based substrates). The effect of compound on enzymatic activity was obtained from the linear part of the progress curves and determined after 1 h (t=60 min). The final compound concentrations ranged from 100 μM to 1 nM.
Human AMSHLP. Enzyme was expressed in and purified from E. coli; substrate: ubiquitin-rhodamine110-glycine was purchased from emp Biotech GmbH (Berlin, Germany; product number AS 09/12-A4); enzyme concentration: 4 nM; substrate concentration: 200 nM; assay buffer: 100 mM Tris/HCl at pH 7.5, 10 mM CaCl2, 100 mM NaCl, 10 μM ZnCl2, 0.005% (v/v) BRIJ 35 and 5 mM dithioerythritol (DTE).

For a further assay, the target named is T3, human MMP2 (Homo sapiens, UniProt P08253).
T3 construct: human MMP2 (Uniprot P08253), amino acids 1–660; made in house; host or cells: insect cells (baculovirus)
T3 sequence (P08253 30-660): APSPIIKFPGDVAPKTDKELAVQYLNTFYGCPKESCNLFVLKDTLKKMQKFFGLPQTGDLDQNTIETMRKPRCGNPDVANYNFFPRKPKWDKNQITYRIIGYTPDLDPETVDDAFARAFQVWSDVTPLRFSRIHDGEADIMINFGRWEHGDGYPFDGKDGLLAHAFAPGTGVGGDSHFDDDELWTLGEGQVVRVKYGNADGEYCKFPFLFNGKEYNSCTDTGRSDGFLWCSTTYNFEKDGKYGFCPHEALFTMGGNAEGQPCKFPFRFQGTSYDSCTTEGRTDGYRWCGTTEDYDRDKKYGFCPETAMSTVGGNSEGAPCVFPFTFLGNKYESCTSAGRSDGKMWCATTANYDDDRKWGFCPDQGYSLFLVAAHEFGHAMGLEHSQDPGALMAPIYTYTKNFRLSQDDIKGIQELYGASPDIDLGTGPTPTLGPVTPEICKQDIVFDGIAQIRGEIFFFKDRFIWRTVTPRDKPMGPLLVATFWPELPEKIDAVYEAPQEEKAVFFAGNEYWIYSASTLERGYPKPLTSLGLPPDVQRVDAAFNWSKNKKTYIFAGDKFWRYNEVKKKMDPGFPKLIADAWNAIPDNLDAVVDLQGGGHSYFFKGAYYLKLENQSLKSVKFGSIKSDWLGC
In words: Selectivity assay MMP2. As to the method:
as §1
(§2) Matrix metalloproteinases. Human MMP1 (Uniprot P03956), amino acids 1–469, expressed in and purified from stable transfected C127 cells; human MMP2 (Uniprot P08253), amino acids 1–660, expressed in and purified from insect cells (baculovirus expression system); human MMP8 (Uniprot P22894), amino acids 100–262, expressed in and purified from E. coli; human MMP9 (Uniprot P14780), amino acids 1–707, expressed in and purified from stable transfected 293 cells; human MMP12 (Uniprot P39900), amino acids 101–268, expressed in and purified from E. coli; human MMP13 (Uniprot P45452), amino acids 103–274, expressed in and purified from E. coli; human MMP14 (Uniprot P50281), amino acids 112–284, expressed in and purified from E. coli; human ADAM17 (Uniprot P78536), amino acids 1–670, expressed in and purified from insect cells (baculovirus expression system); substrate: Ac-C(PT14)-[…]-NH2 purchased from Biosyntan (product number 8069); enzyme concentrations: 3 nM (MMP1), 1 nM (MMP2), 3 nM (MMP8), 0.1 nM (MMP9), 0.5 nM (MMP12), 0.13 nM (MMP13), 0.005 nM (MMP14), 30 nM (ADAM17); substrate concentration: 0.8 μM; assay buffer: 100 mM Tris, pH 7.4, 100 mM NaCl, 10 mM CaCl2, 10 μM ZnCl2, 0.075% (v/v) Brij35.

Another assay has as its target T4, human MMP8 (Homo sapiens, UniProt P22894).
T4 construct: human MMP8 (Uniprot P22894), amino acids 100–262; made in house; host or cells: E. coli
In words: Selectivity assay MMP8. As to the method:
as §1, §2

Another assay deals with T5, human MMP9 (Homo sapiens, UniProt P14780).
T5 construct: human MMP9 (Uniprot P14780), amino acids 1–707; made in house; host or cells: stably transfected 293 cells
T5 sequence (P14780 20-707): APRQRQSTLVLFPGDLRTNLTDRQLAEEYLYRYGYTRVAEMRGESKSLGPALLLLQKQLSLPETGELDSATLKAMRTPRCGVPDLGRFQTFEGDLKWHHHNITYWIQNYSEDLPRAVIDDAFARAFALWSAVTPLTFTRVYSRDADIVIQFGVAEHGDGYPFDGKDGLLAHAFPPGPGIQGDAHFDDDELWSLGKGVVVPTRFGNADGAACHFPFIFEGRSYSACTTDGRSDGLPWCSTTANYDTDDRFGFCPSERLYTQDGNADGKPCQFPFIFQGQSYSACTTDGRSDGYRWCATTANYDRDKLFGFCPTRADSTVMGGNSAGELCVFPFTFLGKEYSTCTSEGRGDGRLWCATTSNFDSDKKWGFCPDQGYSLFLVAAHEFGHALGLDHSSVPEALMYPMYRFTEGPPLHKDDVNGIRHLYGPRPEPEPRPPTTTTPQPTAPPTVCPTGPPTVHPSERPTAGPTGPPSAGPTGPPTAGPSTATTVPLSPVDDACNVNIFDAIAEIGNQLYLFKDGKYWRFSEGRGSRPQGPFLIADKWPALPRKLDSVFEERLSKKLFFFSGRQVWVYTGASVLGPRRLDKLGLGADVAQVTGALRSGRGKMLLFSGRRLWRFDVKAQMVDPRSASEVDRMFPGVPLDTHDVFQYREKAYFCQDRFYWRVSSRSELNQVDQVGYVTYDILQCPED
Kind of assay: Selectivity assay MMP9. As to the method: as §1, §2

In a further assay the target is T6, human MMP12 (Homo sapiens, UniProt P39900).
T6 construct: human MMP12 (Uniprot P39900), amino acids 101–268; made in house; host or cells: E. coli
T6 sequence (P39900 101-268): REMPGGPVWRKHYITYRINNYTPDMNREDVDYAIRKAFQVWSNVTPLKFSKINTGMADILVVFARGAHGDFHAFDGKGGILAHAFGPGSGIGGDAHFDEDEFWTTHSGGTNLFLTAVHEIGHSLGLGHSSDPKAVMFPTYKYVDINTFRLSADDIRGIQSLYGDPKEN
Kind of assay: Selectivity assay MMP12. As to the method: as §1, §2

Another assay has as its target T7, human MMP13 (Homo sapiens, UniProt P45452).
T7 construct: human MMP13 (Uniprot P45452), amino acids 103–274; made in house; host or cells: E. coli
Kind of assay: Selectivity assay MMP13. As to the method: as §1, §2

In another assay the target is T8, human MMP14 (Homo sapiens, UniProt P50281).
T8 construct: human MMP14 (Uniprot P50281), amino acids 112–284; made in house; host or cells: E. coli
In words: Selectivity assay MMP14. As to the method:
as §1, §2

In another assay the target is T9, human ADAM17 (Homo sapiens, UniProt P78536).
T9 construct: human ADAM17 (Uniprot P78536), amino acids 1–670; made in house; host or cells: insect cells (baculovirus)
T9 sequence (P78536 18-670): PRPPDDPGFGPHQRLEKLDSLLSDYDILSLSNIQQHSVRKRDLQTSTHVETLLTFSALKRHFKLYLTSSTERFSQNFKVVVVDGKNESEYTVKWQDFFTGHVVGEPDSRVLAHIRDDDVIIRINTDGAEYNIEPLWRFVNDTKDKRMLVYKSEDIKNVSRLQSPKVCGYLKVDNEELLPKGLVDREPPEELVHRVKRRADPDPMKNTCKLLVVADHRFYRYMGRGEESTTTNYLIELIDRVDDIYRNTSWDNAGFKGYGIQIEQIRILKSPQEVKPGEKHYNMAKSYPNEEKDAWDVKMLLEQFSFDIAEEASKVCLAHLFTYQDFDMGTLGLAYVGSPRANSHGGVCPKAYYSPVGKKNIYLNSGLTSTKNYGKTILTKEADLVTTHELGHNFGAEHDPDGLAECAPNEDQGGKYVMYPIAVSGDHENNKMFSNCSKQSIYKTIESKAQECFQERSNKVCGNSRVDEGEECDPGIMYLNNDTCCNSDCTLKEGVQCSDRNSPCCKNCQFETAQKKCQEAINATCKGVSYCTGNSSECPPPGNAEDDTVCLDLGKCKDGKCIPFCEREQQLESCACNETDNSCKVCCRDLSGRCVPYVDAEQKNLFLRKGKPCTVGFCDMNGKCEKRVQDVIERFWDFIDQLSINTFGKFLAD
Kind of assay: Selectivity assay ADAM17. As to the method: as §1, §2

T4 sequence (P22894 100-262): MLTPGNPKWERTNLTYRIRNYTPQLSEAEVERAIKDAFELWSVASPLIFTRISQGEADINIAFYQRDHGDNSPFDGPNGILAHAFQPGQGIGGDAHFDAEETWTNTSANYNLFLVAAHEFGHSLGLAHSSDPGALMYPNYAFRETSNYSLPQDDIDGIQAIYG

For `N#Cc1ccc(C2C(O)CCCc3cncn32)c(-c2ccccc2Cl)c1` (stereo not drawn) [CSN5i-1b], the concentration for half-maximal inhibition (IC50) at CSN5 is 1.1 ± 0.5 µM; against Human AMSHLP, > 100 µM; against human MMP2, > 100 µM; on human MMP8, > 100 µM; against human MMP9, > 100 µM; against human MMP12, > 100 µM. The concentration for half-maximal inhibition (IC50) at human MMP13, on human MMP14 and against human ADAM17 was > 100 µM each time.

Source of the values: article PMC5078989, “Targeted inhibition of the COP9 signalosome for treatment of cancer” (Nature Communications, 2016).
